Blank lines part the entries; values can stand above or below the molecule they belong to.
Experiments:
[1] = tested on: Bemisia tabaci whiteflies; settings: cited from earlier work; for repellent to Bemisia tabaci whiteflies: purified compounds, Bleeker et al., Phytochemistry 2011; for attractiveness of cultivated tomato to B. tabaci after addition of the compound: compared with neighbouring siblings, Bleeker et al. 2011
[2] = tested on: Tuta absoluta; assay: No-choice oviposition assay Tuta absoluta; type: in vivo; settings: F2 plants, FIGS. 10A and 10B
Method: Tuta absoluta (order: Lepidoptera) were reared on tomato (S. lycopersicum). A no-choice assay was performed for 7 days. 5 adults were allowed to oviposit their eggs on S. lycopersicum (C32) plants and on F2 plants arisen from an interspecies cross between S. lycopersicum (C32) and S. habrochaites (PI127826). After 7 days, Tuta abosoluta oviposition (number of eggs deposited) was determined on the abaxial and adaxial side of six leaves per plant genotype. F2 plants were characterized for 7-epizingiberene content after the assay and Tuta abosoluta oviposition (number of eggs deposited) was correlated to the content of 7-epizingiberene.

[3] = isolated compound; previously observed by Bleeker et al. 2011; cited from earlier work
[4] = tested on: B. tabaci (biotype Q); assay: Clip cage bioassay B. tabaci (whitefly); type: in vivo, Bemisia tabaci; settings: clip cages, 20 adults, after 5 days; compared with S. lycopersicum C32
Method: An interspecies cross between S. lycopersicum and S. habrochaites was performed and F2 lines were transferred to the greenhouse at the University of Amsterdam. The F2 plants were tested for their production of 7-epizingiberene. Cuttings were made of 7-epizingiberene producing F2 lines, S. lycopersicum C32 (moneymaker) and of S. habrochaites (PI127826). Both a parental line of the initial cross.
Two cuttings of genotypes PI127826 and C32 and the respective F2s received 4 clip cages, each of which contained 20 adult B. tabaci (biotype Q) initially collected in Almeria (Spain) and reared continuously on cucumber under laboratory conditions (see Bleeker et al., 2009—Plant Physiol.). After 5 days, the total number and percentage of dead flies and total nr of eggs (combined abaxial and adaxial side of leaves) was determined.

[5] = tested on: fourth instar larvae of Colorado potato beetle; settings: Antonious et al. 2005; cited from earlier work
[6] = tested on: adult whiteflies B. tabaci; settings: Antonious et al. 2005; cited from earlier work
[7] = Enzyme activity assay with E-E-FPP, products by enantioselective GC-MS; type: biochemical; settings: heterologously expressed; SPME, chiral column
Method: Activity assays were performed in 20 mL glass vials in a total volume of 500 μL 50 mM HEPES, pH7.2, 100 mM KCl, 7.5 mM MgCl2, 20 μM MgCl2, 5% (v/v) glycerol, 5 mM DTT with 50 μL protein and either 2 mM cis-FPP (2Z-6Z-farnesyl diphosphate), trans-FPP (E-E-farnesyl diphosphate), GPP (geranyl diphosphate), NDP (neryl diphosphate), or GGPP (geranylgeranyl diphosphate) as a substrate (Echelon Biosciences Incorporated, Salt Lake City, USA). Vials were closed with a teflon lined crimp cap immediately and incubated under moderate shaking for 1 hour at 30° C.
Enzyme products were sampled with a Solid Phase Micro Extraction fiber (SPME) for 10 minutes after the vial had been agitated and heated to 50° C. The fiber was desorbed for 1 minute in an Optic injector port (ATAS GL Int. Zoeterwoude, NL) which was kept at 220° C. For liquid injection 1-3 μL of sample in hexane was injected.
In order to separate alpha-zingiberene from 7-epizingiberene the Astec CHIRALDEX™ B-DM column (30m×0.25 mm×0.12 μm film thickness; Supelco) was selected. The column was placed in an 6890 N gas chromatograph (Agilent, Amstelveen, NI). […] Helium was used as a carrier gas. Mass spectra were generated with the ion source set to −70V at 200° C. and collected with a Time-of-Flight MS (Leco, Pegasus III, St. Joseph, Mich., USA) at 1850 V, with an acquisition rate of 20 scans per second.

[8] = Enzyme activity assay with zFPP, products by enantioselective GC-MS; type: biochemical; settings: heterologously expressed in E. coli; SPME, chiral column
Method: The full length gene (comprising SEQ ID NO:4 5′ of SEQ ID NO:2 (SEQ ID NO:4-SEQ ID NO:2)) was cloned into the pGEX-KG expression vector (Guan and Dixon 1991). Constructs were transformed to C41 (DE3) E. coli cells (Dumon-Seignovert et al., 2004). As a control, empty pGEX-KG vector was transformed. A culture was grown to an OD600 of 0.5-0.6 at 37° C. and placed at 4° C. for 30 min. Protein expression was induced with 1 mM isopropyl β-D-1-thiogalactopyranoside (IPTG). After 16 hours incubation at 16° C., cells were harvested by centrifugation. The supernatant was removed and the pellet was resuspended in assay buffer (25 mM HEPES, pH 7.2, 10 mM MgCl2, 10% (v/v) glycerol) with added lysozyme (1 mg mL^−1) and proteinase inhibitors and incubated on ice for 30 minutes and subsequently sonicated. The lysate was centrifuged and the supernatant was stored at −80° C. Activity assays were performed in 500 μL 50 mM HEPES, pH7.2, 100 mM KCl, 7.5 mM MgCl2, 20 μM MgCl2, 5% (v/v) glycerol, 5 mM DTT with 50 μL protein and 2 mM cis-FPP(2Z-6Z-farnesyl diphosphate) as substrate. Enzyme products were analyzed by GC-MS with Solid Phase Micro Extraction fiber (SPME). Terpene products were identified using standards and comparing ion spectra, retention time and Kovats Index (see FIGS. 1 and 2). […]

Molecule: CC(C)=CCC[C@H](C)c1ccc(C)cc1 [S-curcumene]
repellent to Bemisia tabaci whiteflies [1]: do not

Molecule: CC(C)=CCC[C@@H](C)[C@@H]1C=CC(C)=CC1 [7-epizingiberene]
attractiveness of cultivated tomato to B. tabaci after addition of the compound [1]: less attractive
repellent to Bemisia tabaci whiteflies [1]: act as repellent
correlation of oviposition with 7-epizingiberene content [2]: negatively correlated
stability when exposed to air [3]: spontaneously convert to R-curcumene
resistance to whiteflies (adult mortality and oviposition) [4]: enhances resistance to whiteflies

Molecule: CCCCCCCCCC(C)=O [2-undecanone]
toxic effect against fourth instar larvae of Colorado potato beetle [5]: toxic effect

Molecule: CC(C)=CCC[C@H](C)[C@@H]1C=CC(C)=CC1 [alpha-zingiberene]
repellent to Bemisia tabaci whiteflies [1]: do not

Molecule: CCCCCCCCCCCC(C)=O [2-tridecanone]
toxic effect against adult whiteflies B. tabaci [6]: toxic effect

Molecule: CC(C)=CCC[C@@H](C)c1ccc(C)cc1 [R-curcumene]
attractiveness of cultivated tomato to B. tabaci after addition of the compound [1]: less attractive
repellent to Bemisia tabaci whiteflies [1]: act as repellent

product formed from E-E-FPP [7]: made alpha-zingiberene
B1: ObZIS: sweet lemon basil zingiberene synthase (Iijima et al., 2004), alpha-zingiberene synthase (protein, UniProt Q5SBP4 1-541, looked up)
Alpha-zingiberene synthase: MESRRSANYQASIWDDNFIQSLASPYAGEKYAEKAEKLKTEVKTMIDQTRDELKQLELIDNLQRLGICHHFQDLTKKILQKIYGEERNGDHQHYKEKGLHFTALRFRILRQDGYHVPQDVFSSFMNKAGDFEESLSKDTKGLVSLYEASYLSMEGETILDMAKDFSSHHLHKMVEDATDKRVANQIIHSLEMPLHRRVQKLEAIWFIQFYECGSDANPTLVELAKLDFNMVQATYQEELKRLSRWYEETGLQEKLSFARHRLAEAFLWSMGIIPEGHFGYGRMHLMKIGAYITLLDDIYDVYGTLEELQVLTEIIERWDINLLDQLPEYMQIFFLYMFNSTNELAYEILRDQGINVISNLKGLWVELSQCYFKEATWFHNGYTPTTEEYLNVACISASGPVILFSGYFTTTNPINKHELQSLERHAHSLSMILRLADDLGTSSDEMKRGDVPKAIQCFMNDTGCCEEEARQHVKRLIDAEWKKMNKDILMEKPFKNFCPTAMNLGRISMSFYEHGDGYGGPHSDTKKKMVSLFVQPMNITI

product formed from Z-Z-FPP [8]: made 7-epizingiberene
B2: ShZIS: 7-epizingiberene synthase protein from Solanum habrochaites, SEQ ID NO:1 (protein)
chain: CSHSTPSSMNGFEDARDRIRESFGKVELSPSSYDTAWVAMVPSKHSLNEPCFPQCLDWIIENQREDGSWGLNPSHPLLLKDSLSSTLACLLALTKWRVGDEQIKRGLGFIETQSWAIDNKDQISPLGFEIIFPSMIKSAEKLNLNLAINKRDSTIKRALQNEFTRNIEYMSEGFGELCDWKEIIKLHQRQNGSLFDSPATTAAALIYHQHDKKCYEYLNSILQQHKNWVPTMYPTKIHSLLCLVDTLQNLGVHRHFKSEIKKALDEIYRLWQQKNEEIFSNVTHCAMAFRLLRISYYDVSSDELAEFVDEEHFFATSGKYTSHVEILELHKASQLAIDHEKDDILDKINNWTRTFMEQKLLNNGFIDRMSKKEVELALRNFYIISDLAENRRYIKSYEENNFKILKAAYRSPNINNKDLFIFSIRDFELCQAQHQEELQQLKRWFEDCRLDQLGLSEQFISASYLCAIPIVPGPELSDARLVYAKYVMLLTIVDDHFESFASTDECLNIIELVERWDDYASVGYKSERVKVLFSMFYKSIEEIATIAEIKQGRSVKNHLINLWLKVMKLMLMERVEWCSGKTIPRIEEYLYVSSITFGSRLIPLTTQYFIGIKISKDLLESDEIYGLCNFTGIVLRLLNDLQDSKREQKEGSINLVTLLMKSISEEEAIMKMKEILEMKRRELFKMVLVQKKGSQLPQLCKEIFWRTCKWAHFTYSQTDRYRFPEEMENHIDEVFYKPLNH
modifications: Solanum habrochaites
